The target of the assay is T1, HDAC6 enzyme (Homo sapiens, UniProt Q9UBN7).
T1 construct: prepared by transducing full length HDAC1 and HDAC6 genes into Sf-9 insect cells; GST; purchased SignalChem; host or cells: Sf-9 insect cells
T1 sequence (Q9UBN7 1-1215): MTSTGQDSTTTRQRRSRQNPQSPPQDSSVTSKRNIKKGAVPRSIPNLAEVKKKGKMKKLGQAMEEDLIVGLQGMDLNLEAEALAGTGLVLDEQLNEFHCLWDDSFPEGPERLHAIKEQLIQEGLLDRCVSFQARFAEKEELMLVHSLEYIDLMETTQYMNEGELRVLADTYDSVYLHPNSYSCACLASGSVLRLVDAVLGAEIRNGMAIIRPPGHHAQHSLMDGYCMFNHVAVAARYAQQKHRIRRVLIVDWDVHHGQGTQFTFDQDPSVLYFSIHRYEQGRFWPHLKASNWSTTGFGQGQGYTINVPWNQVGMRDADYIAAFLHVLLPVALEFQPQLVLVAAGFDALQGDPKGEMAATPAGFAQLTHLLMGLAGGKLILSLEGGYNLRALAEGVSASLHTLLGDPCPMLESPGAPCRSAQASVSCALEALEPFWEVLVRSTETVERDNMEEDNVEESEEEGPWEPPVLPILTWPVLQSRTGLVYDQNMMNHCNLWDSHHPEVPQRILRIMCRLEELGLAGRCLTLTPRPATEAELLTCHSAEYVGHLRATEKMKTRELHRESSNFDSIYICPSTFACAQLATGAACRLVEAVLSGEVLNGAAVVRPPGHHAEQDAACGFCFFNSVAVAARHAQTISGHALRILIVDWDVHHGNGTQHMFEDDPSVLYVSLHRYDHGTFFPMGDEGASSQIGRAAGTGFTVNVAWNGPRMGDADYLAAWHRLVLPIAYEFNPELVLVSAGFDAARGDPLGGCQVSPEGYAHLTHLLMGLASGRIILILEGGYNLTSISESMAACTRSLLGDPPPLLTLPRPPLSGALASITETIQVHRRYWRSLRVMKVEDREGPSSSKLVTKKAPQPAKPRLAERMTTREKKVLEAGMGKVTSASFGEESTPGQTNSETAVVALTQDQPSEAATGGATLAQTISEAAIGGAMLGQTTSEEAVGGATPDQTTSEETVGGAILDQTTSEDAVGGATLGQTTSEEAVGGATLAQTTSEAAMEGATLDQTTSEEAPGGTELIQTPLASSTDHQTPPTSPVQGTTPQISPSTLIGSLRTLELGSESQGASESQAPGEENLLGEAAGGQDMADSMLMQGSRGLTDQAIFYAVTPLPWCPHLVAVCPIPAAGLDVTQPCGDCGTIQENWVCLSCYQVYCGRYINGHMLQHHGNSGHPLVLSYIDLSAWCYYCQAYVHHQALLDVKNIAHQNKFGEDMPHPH
Nature of the assay: HDAC6 enzyme inhibitory assay (HDAC-Glo I/II Assay kit). Type of assay: biochemical. The conditions noted are these: 1 μM test compound; read-out: HDAC6 inhibitory rate (%) (1 μM). Put shortly:
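Full-length GST-purified HDAC1 or HDAC6 (Sf-9 expressed) preincubated 60 min at room temperature with compound in Tris-HCl pH 7.5 buffer with glutathione and Tween-20. HDAC-Glo substrate-developer added, 20 min at room temperature, then luminescence read; inhibition relative to no-enzyme wells as 100%.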
As for `O=C(NC[C@H]1COCCN1C(=O)c1cc(F)cc(F)c1)c1ccc(-c2noc(C(F)(F)F)n2)cn1` [Example 186, N-(((3S)-4-(3,5-difluorobenzoyl)morpholin-3-yl)methyl)-5-(5-(trifluoromethyl)-1,2,4-oxadiazol-3-yl)pyridine-2-carboxamide], the inhibition at 1 µM was 99%.

Consider `N#Cc1ccccc1C(=O)N1CCOC[C@@H]1CNC(=O)c1ccc(-c2noc(C(F)(F)F)n2)cn1` [Example 187, N-(((3S)-4-(2-cyanobenzoyl)morpholin-3-yl)methyl)-5-(5-(trifluoromethyl)-1,2,4-oxadiazol-3-yl)pyridine-2-carboxamide], for which the inhibition at 1 µM was found to be 94%.

Consider `N#Cc1cccc(C(=O)N2CCOC[C@@H]2CNC(=O)c2ccc(-c3noc(C(F)(F)F)n3)cn2)c1` [Example 188, N-(((3S)-4-(3-cyanobenzoyl)morpholin-3-yl)methyl)-5-(5-(trifluoromethyl)-1,2,4-oxadiazol-3-yl)pyridine-2-carboxamide], for which the inhibition at 1 µM came to 95%.

On to `N#Cc1cc(F)cc(C(=O)N2CCOC[C@@H]2CNC(=O)c2ccc(-c3noc(C(F)(F)F)n3)cn2)c1` [Example 189, N-(((3S)-4-(3-cyano-5-fluorobenzoyl)morpholin-3-yl)methyl)-5-(5-(trifluoromethyl)-1,2,4-oxadiazol-3-yl)pyridine-2-carboxamide], for which the inhibition at 1 µM is 95%.

In the case of `N#Cc1ccc(C(=O)N2CCOC[C@@H]2CNC(=O)c2ccc(-c3noc(C(F)(F)F)n3)cn2)cc1` [Example 190, N-(((3S)-4-(4-cyanobenzoyl)morpholin-3-yl)methyl)-5-(5-(trifluoromethyl)-1,2,4-oxadiazol-3-yl)pyridine-2-carboxamide], the inhibition at 1 µM was 95%.

On to `O=C(NC[C@H]1COCCN1C(=O)c1ccncc1)c1ccc(-c2noc(C(F)(F)F)n2)cn1` [Example 191, N-(((3S)-4-isonicotinoylmorpholin-3-yl)methyl)-5-(5-(trifluoromethyl)-1,2,4-oxadiazol-3-yl)pyridine-2-carboxamide], for which the inhibition at 1 µM was found to be 96%.

`Cn1nccc1C(=O)N1CCOC[C@@H]1CNC(=O)c1ccc(-c2noc(C(F)(F)F)n2)cn1` [Example 192, N-(((3S)-4-((1-methyl-1H-pyrazol-5-yl)carbonyl)morpholin-3-yl)methyl)-5-(5-(trifluoromethyl)-1,2,4-oxadiazol-3-yl)pyridine-2-carboxamide]: the inhibition at 1 µM came to 94%.

`Cc1ncsc1C(=O)N1CCOC[C@@H]1CNC(=O)c1ccc(-c2noc(C(F)(F)F)n2)cn1` [Example 196, N-(((3S)-4-((4-methyl-1,3-thiazol-5-yl)carbonyl)morpholin-3-yl)methyl)-5-(5-(trifluoromethyl)-1,2,4-oxadiazol-3-yl)pyridine-2-carboxamide]: the inhibition at 1 µM was determined as 96%.

Consider `O=C(NC[C@H]1COCCN1C(=O)c1cccs1)c1ccc(-c2noc(C(F)(F)F)n2)cn1` [Example 197, N-(((3S)-4-(2-thienylcarbonyl)morpholin-3-yl)methyl)-5-(5-(trifluoromethyl)-1,2,4-oxadiazol-3-yl)pyridine-2-carboxamide], for which the inhibition at 1 µM turned out to be 97%.

`Cc1ccsc1C(=O)N1CCOC[C@@H]1CNC(=O)c1ccc(-c2noc(C(F)(F)F)n2)cn1` [Example 198, N-(((3S)-4-((3-methyl-2-thienyl)carbonyl)morpholin-3-yl)methyl)-5-(5-(trifluoromethyl)-1,2,4-oxadiazol-3-yl)pyridine-2-carboxamide]: the inhibition at 1 µM was found to be 99%.

Regarding `O=C(NC[C@H]1COCCN1C(=O)C1CCc2ccccc2O1)c1ccc(-c2noc(C(F)(F)F)n2)cn1` (stereo partly drawn) [Example 199, N-(((3S)-4-(3,4-dihydro-2H-chromen-2-ylcarbonyl)morpholin-3-yl)methyl)-5-(5-(trifluoromethyl)-1,2,4-oxadiazol-3-yl)pyridine-2-carboxamide], the inhibition at 1 µM was 94%.

Regarding `O=C(NC[C@H]1COCCN1C(=O)c1cc2ccccc2o1)c1ccc(-c2noc(C(F)(F)F)n2)cn1` [Example 200, N-(((3S)-4-(1-benzofuran-2-ylcarbonyl)morpholin-3-yl)methyl)-5-(5-(trifluoromethyl)-1,2,4-oxadiazol-3-yl)pyridine-2-carboxamide], the inhibition at 1 µM is 91%.

Consider `O=C(NC[C@H]1COCCN1C(=O)Cc1cccs1)c1ccc(-c2noc(C(F)(F)F)n2)cn1` [Example 201, N-(((3S)-4-(2-thienylacetyl)morpholin-3-yl)methyl)-5-(5-(trifluoromethyl)-1,2,4-oxadiazol-3-yl)pyridine-2-carboxamide], for which the inhibition at 1 µM worked out at 95%.

For the compound `O=C(NC[C@H]1COCCN1C(=O)CCc1ccccc1)c1ccc(-c2noc(C(F)(F)F)n2)cn1` [Example 203, N-(((3S)-4-(3-phenylpropanoyl)morpholin-3-yl)methyl)-5-(5-(trifluoromethyl)-1,2,4-oxadiazol-3-yl)pyridine-2-carboxamide], the inhibition at 1 µM came out at 95%.

Regarding `O=C(NCC1COCCN1C(=O)c1cccc(F)c1)c1ccc(-c2noc(C(F)(F)F)n2)s1` (stereo not drawn) [Example 212, N-((4-(3-fluorobenzoyl)morpholin-3-yl)methyl)-5-(5-(trifluoromethyl)-1,2,4-oxadiazol-3-yl)thiophene-2-carboxamide], the inhibition at 1 µM is 97%.

As for `O=C(NCC1COCCN1C(=O)c1cc(F)cc(F)c1)c1ccc(-c2noc(C(F)(F)F)n2)s1` (stereo not drawn) [Example 213, N-((4-(3,5-difluorobenzoyl)morpholin-3-yl)methyl)-5-(5-(trifluoromethyl)-1,2,4-oxadiazol-3-yl)thiophene-2-carboxamide], the inhibition at 1 µM came to 95%.

Turning to `O=C(NCC1COCCN1C(=O)c1ccccc1Cl)c1ccc(-c2noc(C(F)(F)F)n2)s1` (stereo not drawn) [Example 214, N-((4-(2-chlorobenzoyl)morpholin-3-yl)methyl)-5-(5-(trifluoromethyl)-1,2,4-oxadiazol-3-yl)thiophene-2-carboxamide], the inhibition at 1 µM turned out to be 96%.

As to `O=C(NCC1COCCN1C(=O)c1cccc(Cl)c1)c1ccc(-c2noc(C(F)(F)F)n2)s1` (stereo not drawn) [Example 215, N-((4-(3-chlorobenzoyl)morpholin-3-yl)methyl)-5-(5-(trifluoromethyl)-1,2,4-oxadiazol-3-yl)thiophene-2-carboxamide], the inhibition at 1 µM was 94%.

For the compound `O=C(NCC1COCCN1C(=O)c1ccc(Cl)cc1)c1ccc(-c2noc(C(F)(F)F)n2)s1` (stereo not drawn) [Example 216, N-((4-(4-chlorobenzoyl)morpholin-3-yl)methyl)-5-(5-(trifluoromethyl)-1,2,4-oxadiazol-3-yl)thiophene-2-carboxamide], the inhibition at 1 µM was determined as 93%.

As for `N#Cc1ccccc1C(=O)N1CCOCC1CNC(=O)c1ccc(-c2noc(C(F)(F)F)n2)s1` (stereo not drawn) [Example 217, N-((4-(2-cyanobenzoyl)morpholin-3-yl)methyl)-5-(5-(trifluoromethyl)-1,2,4-oxadiazol-3-yl)thiophene-2-carboxamide], the inhibition at 1 µM turned out to be 94%.

Take `N#Cc1cccc(C(=O)N2CCOCC2CNC(=O)c2ccc(-c3noc(C(F)(F)F)n3)s2)c1` (stereo not drawn) [Example 218, N-((4-(3-cyanobenzoyl)morpholin-3-yl)methyl)-5-(5-(trifluoromethyl)-1,2,4-oxadiazol-3-yl)thiophene-2-carboxamide]: the inhibition at 1 µM worked out at 91%.

(Values after patent US10081624B2, “Heterocyclic compound” (Takeda Pharmaceutical Company Limited, priority 2014, dated 2018).)
